Test results as given in patent US8303989B2, “Compositions and methods for increasing the oral absorption of antimicrobials” (International Health Management Associates, Inc., priority 2000, dated 2012).
Each block holds one compound with its values, some of them ahead of it.

What was measured:
[1] = Plasma ceftriaxone pharmacokinetics after intravenous administration to rats; format: in vivo, rat; details: i.v. 20 mg CTX/kg, no capmul
Experimental: These rats were anesthetized with 5.0 mg/100 g of pentobarbital by intraperitoneal injection. […] Blood samples were collected through the jugular vein catheter at predetermined time intervals.
For comparison purposes, about 20 mg/kg of CTX was administered (i.v.) to four rats.

[2] = Plasma ceftriaxone (CTX) pharmacokinetics after intraduodenal (i.d.) administration to rats; details: for BA00 / BA0-4 hr: i.d. 40 mg CTX eq/kg with capmul chase vs i.v. 20 mg CTX/kg
Experimental: (§1) At specific time intervals, 0.6 ml of blood was taken from each rat and centrifuged. About 0.2 ml of the blood plasma was then analyzed for CTX by HPLC.
(§2) To determine absorption from the intestine, male Sprague Dawley rats weighing 250-300 g with free access to water were fasted for about 18 hours prior to the experiment. These rats were anesthetized and maintained with Ketamine/Xlazine ((60 mg/kg)/(80 mg/kg)) by intraperitoneal injection. The small intestine was exposed by a midline abdominal incision. A small incision was made in the stomach to insert a polyethylene tube (i.d. 0.76 mm, o.d. 1.22 mm, Clay Adams) toward the duodenum, which was closed at the exposed end by a stopcock to prevent drainage of drug solution from the duodenum. Ceftriaxone and oral formulations of CTX were dissolved in distilled water to achieve a final concentration of 40 mg CTX eq./kg and injected into the duodenum using the tube. Then 0.2 ml mono- and diglyceride mixture (Capmul) was coadministered into the duodenum using the intraduodenal tube. Blood samples were taken with a heparinized syringe through the jugular vein catheter at predetermined intervals.
(§3) The concentration of ceftriaxone in the plasma was determined by HPLC. Blood samples were centrifuged for 5 min at 5,000 rpm and 0.2 ml of plasma was taken into the microtube. 0.2 ml plasma was diluted by 0.2 ml of distilled water, and then 0.8 ml of acetonitrile was added for protein removal. The resulting suspensions were centrifuged for 10 min at 12,000 rpm and 50 μl of the clear supernatant was used for HPLC analysis. […] Percent bioavailability was calculated as follows: % BA=(AUC i.d./AUC i.v.)×(Dose i.v./Dose i.d.)×100
(§4) As a control, about 40 mg/kg of CTX was i.d. co-administered with 0.2 ml of capmul to four rats. […] At specific time intervals, 0.6 ml of blood was taken from each rat and centrifuged. About 0.2 ml of the blood plasma was then analyzed for CTX by HPLC.

in vivo = details: male, Sprague-Dawley, rat, plasma, other: intraduodenal (i.d.)
Experimental: as §1, §2, §3, §4

[3] = Plasma concentration of meropenem in rats after intraduodenal administration; format: in vivo, rat; details: control: meropenem reconstituted per manufacturer, ID catheter, saline flush, no Capmul
Experimental: Meropenem was infused as a solution through an intraduodenal catheter followed by 0.2 ml. Capmul chase and a saline flush. The carrier formulation was meropenem in calcium-carrageenen to a final concentration of approximately 55% meropenem by weight. Two rats were dosed through a duodenum catheter and plasma samples were collected through 4 hours post dosage. For comparison purposes, a control group received meropenem reconstituted according to the manufacturers instructions, and infused as a solution through ID catheter followed by a saline flush.
Two fasted rats were dosed through a duodenal catheter and plasma samples were collected through 4 hours post dosage. […] A third rat expired prior to dosage, possibly due to anesthesia required for surgery. Rat #1 expired at 4 hours, possibly due to the effects of prolonged anesthesia and blood collection.

[4] = Table 5, rats, i.d. 40 mg CTX eq/kg, 0.2 ml capmul chase
[5] = Table 6, rats, i.d. 40 mg CTX eq/kg, 0.2 ml capmul chase

AUC00 ([1]; Table 5, rats): 188.0 ± 6.4 μghr/ml | AUC00 ([1]; Table 6, rats): 188.0 ± 6.4 μghr/ml | BA00 ([2]; Table 5, rats): 13.9% | BA0-4 hr ([2]; Table 5, rats): 9.4% | AUC00 [2, 4]: 52.3 ± 32.4 μghr/ml | AUG0-4 hr [2, 4]: 31.7 ± 12.4 μghr/ml | BA00 ([2]; Table 6, rats): 13.9% | BA0-4 hr ([2]; Table 6, rats): 9.4% | AUC00 [2, 5]: 52.3 ± 32.4 μghr/ml | AUC0-4 hr [2, 5]: 31.7 ± 12.4 μghr/ml | Cmax [2, 5]: 17.2 µg/mL | concentration at 30 min (in vivo; 40 mg CTX eq./kg): 10000 ng/mL | concentration at 60 min (in vivo; 40 mg CTX eq./kg): 11000 ng/mL | concentration at 90 min (in vivo; 40 mg CTX eq./kg): 9000 ng/mL | concentration at 120 min (in vivo; 40 mg CTX eq./kg): 7000 ng/mL | concentration at 180 min (in vivo; 40 mg CTX eq./kg): 6000 ng/mL | concentration at 240 min (in vivo; 40 mg CTX eq./kg): 5000 ng/mL | Cmax (in vivo; 40 mg CTX eq/kg): 17200 ng/mL | Tmax (in vivo; 40 mg CTX eq/kg): 1 h
SMILES: CO/N=C(\C(=O)N[C@@H]1C(=O)N2C(C(=O)O)=C(CSc3nc(=O)c(O)nn3C)CS[C@H]12)c1csc(N)n1 [CTX, ceftriaxone]

absorption [3]: not absorbed | blood concentrations [3]: undetectable
SMILES: C[C@@H](O)[C@H]1C(=O)N2C(C(=O)O)=C(S[C@@H]3CN[C@H](C(=O)N(C)C)C3)[C@H](C)[C@H]12 [meropenem]
